Several values for one entry are separate records, joined by “and”; a condition that tells them apart may be missing. Identical values can stand only once. Inconclusive results and toxic doses are left out. No stated cut-off is given here; in the data, active means T/C of 150% or more; inactive means T/C below 125%.
Tested on: L1210 leukemia ip in BDF1 mice, survival T/C
Experiment: NCI In Vivo Anticancer Drug Screen. Data for tumor model L1210 Leukemia (intraperitoneal) in B6D2F1 (BDF1) mice
Details: endpoint: mean survival time, higher = longer survival
Outline: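 Tumor cells were implanted, animals were treated, and survival was followed. The result divides the treated measurement by the vehicle-control measurement.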

[1] = dose: 100.0 mg/kg/injection, schedule: Q04DX003 (ip), vehicle: other
[2] = dose: 200.0 mg/kg/injection, schedule: Q04DX003 (ip), vehicle: other
[3] = dose: 25.0 mg/kg/injection, schedule: Q04DX003 (ip), vehicle: Klucel (hydroxypropylcellulose) (HPC)
[4] = dose: 12.5 mg/kg/injection, schedule: Q04DX003 (ip), vehicle: Klucel (hydroxypropylcellulose) (HPC)
[5] = dose: 100.0 mg/kg/injection, schedule: Q04DX003 (ip), vehicle: Klucel (hydroxypropylcellulose) (HPC)
[6] = dose: 100.0 mg/kg/injection, schedule: Q01DX001 (ip), vehicle: carboxymethylcellulose (CMC)
[7] = dose: 100.0 mg/kg/injection, schedule: Q01DX001 (ip), vehicle: other
[8] = dose: 200.0 mg/kg/injection, schedule: Q01DX001 (ip), vehicle: other
[9] = dose: 400.0 mg/kg/injection, schedule: Q01DX001 (ip), vehicle: other
[10] = dose: 12.5 mg/kg/injection, schedule: Q01DX009 (ip), vehicle: saline with Tween-80
[11] = dose: 25.0 mg/kg/injection, schedule: Q01DX009 (ip), vehicle: saline with Tween-80
[12] = dose: 200.0 mg/kg/injection, schedule: Q04DX003 (ip), vehicle: Klucel (hydroxypropylcellulose) (HPC)
[13] = dose: 400.0 mg/kg/injection, schedule: Q04DX003 (ip), vehicle: Klucel (hydroxypropylcellulose) (HPC)
[14] = dose: 50.0 mg/kg/injection, schedule: Q01DX009 (ip), vehicle: saline with Tween-80
[15] = dose: 100.0 mg/kg/injection, schedule: Q01DX009 (ip), vehicle: saline with Tween-80
[16] = dose: 200.0 mg/kg/injection, schedule: Q01DX009 (ip), vehicle: saline with Tween-80

Measured: T/C

FC(F)(F)C(F)(F)c1nc2nc(Cl)c(Cl)nc2[nH]1
inactive: dose: 50.0 mg/kg/injection, schedule: Q01DX009 (ip), vehicle: other 106 % of control | dose: 100.0 mg/kg/injection, schedule: Q01DX009 (ip), vehicle: other 92 % of control | [1] 120 % of control | dose: 132.0 mg/kg/injection, schedule: Q04DX003 (ip), vehicle: other 94 % of control | [2] 114 % of control

CCCCCCCCCCCCSC1=NCCN1
inactive: [3] 100 % of control | dose: 45.0 mg/kg/injection, schedule: Q04DX003 (ip), vehicle: Klucel (hydroxypropylcellulose) (HPC) 95 % of control | dose: 87.5 mg/kg/injection, schedule: Q04DX003 (ip), vehicle: Klucel (hydroxypropylcellulose) (HPC) 100 % of control | dose: 88.0 mg/kg/injection, schedule: Q04DX003 (ip), vehicle: Klucel (hydroxypropylcellulose) (HPC) 103 % of control

CCOCCOCCOCCOc1ccc2c(c1)OCO2
inactive: dose: 100.0 mg/kg/injection, schedule: Q04DX002 (ip), vehicle: saline 95 % of control | dose: 200.0 mg/kg/injection, schedule: Q04DX002 (ip), vehicle: saline 88 % of control | dose: 400.0 mg/kg/injection, schedule: Q04DX002 (ip), vehicle: saline 107 % of control

NC(=O)C(=O)NCCCCN1CC1
inactive: [4] 97 % of control | [3] 97 % of control | dose: 50.0 mg/kg/injection, schedule: Q04DX003 (ip), vehicle: Klucel (hydroxypropylcellulose) (HPC) 102 % of control | [5] 114 % of control

CC(=O)c1ccc2c(c1)C(=O)c1ccccc1-2
inactive: [6] 92 % of control | dose: 200.0 mg/kg/injection, schedule: Q01DX001 (ip), vehicle: carboxymethylcellulose (CMC) 93 % of control | dose: 400.0 mg/kg/injection, schedule: Q01DX001 (ip), vehicle: carboxymethylcellulose (CMC) 93 % of control

O=C1/C(=C\c2ccccn2)c2ccccc2N1Cl
inactive: [7] 94 % of control | [8] 92 % of control | [9] 94 % of control

Clc1c(CBr)ccc(CBr)c1Cl
inactive: dose: 6.25 mg/kg/injection, schedule: Q01DX009 (ip), vehicle: saline with Tween-80 91 % of control | dose: 6.25 mg/kg/injection, schedule: Q04DX003 (ip), vehicle: Klucel (hydroxypropylcellulose) (HPC) 95 % of control | [10] 89 % of control | [4] 92 % of control | [11] 96 % of control | [3] 93 % of control

CCOC(=O)C(C)S(=O)(=O)/C(=C\N1CCCCC1)CC (centres undefined)
inactive: dose: 100.0 mg/kg/injection, schedule: Q04DX002 (ip), vehicle: Klucel (hydroxypropylcellulose) (HPC) 109 % of control | [1] 104 % of control | dose: 200.0 mg/kg/injection, schedule: Q04DX002 (ip), vehicle: Klucel (hydroxypropylcellulose) (HPC) 98 % of control | [2] 96 % of control | dose: 400.0 mg/kg/injection, schedule: Q04DX002 (ip), vehicle: Klucel (hydroxypropylcellulose) (HPC) 112 % of control | dose: 400.0 mg/kg/injection, schedule: Q04DX003 (ip), vehicle: other 102 % of control

COc1cc2c(cc1OC)C1(NCC2)C(=O)Nc2c(Cl)cccc21 (centres undefined)
inactive: dose: 30.0 mg/kg/injection, schedule: Q04DX002 (ip), vehicle: saline 124 % of control | dose: 60.0 mg/kg/injection, schedule: Q04DX002 (ip), vehicle: saline 113 % of control | dose: 120.0 mg/kg/injection, schedule: Q04DX002 (ip), vehicle: saline 117 % of control

CCC(=O)OC(CCN(C)C)(Cc1ccccc1)c1ccccc1 (centres undefined)
inactive: dose: 25.0 mg/kg/injection, schedule: Q01DX009 (ip), vehicle: saline 100 % of control | dose: 50.0 mg/kg/injection, schedule: Q01DX009 (ip), vehicle: saline 95 % of control | dose: 100.0 mg/kg/injection, schedule: Q01DX009 (ip), vehicle: saline 101 % of control | dose: 100.0 mg/kg/injection, schedule: Q04DX003 (ip), vehicle: saline 93 % of control

Cc1cscc(C)c1=S
inactive: dose: 6.25 mg/kg/injection, schedule: Q01DX009 (ip), vehicle: saline + alcohol 106 % of control | dose: 12.5 mg/kg/injection, schedule: Q01DX009 (ip), vehicle: saline + alcohol 105 % of control | dose: 25.0 mg/kg/injection, schedule: Q01DX009 (ip), vehicle: saline + alcohol 92 % of control

[O-][n+]1ccc(CC(O)(C(F)(F)F)C(F)(F)F)cc1
inactive: dose: 25.0 mg/kg/injection, schedule: Q01DX009 (ip), vehicle: Klucel (hydroxypropylcellulose) (HPC) 93 % of control | dose: 50.0 mg/kg/injection, schedule: Q01DX009 (ip), vehicle: Klucel (hydroxypropylcellulose) (HPC) 92 % of control | dose: 100.0 mg/kg/injection, schedule: Q01DX009 (ip), vehicle: Klucel (hydroxypropylcellulose) (HPC) 97 % of control and 104 % of control | [5] 103 % of control | [12] 102 % of control | [13] 96 % of control

C(=C1\CCc2cc3ccccc3nc21)/c1ccccc1
inactive: [14] 98 % of control | [15] 95 % of control | [16] 88 % of control

Cc1noc(NC(=O)Nc2ccc(Cl)cc2Cl)c1C
inactive: [10] 86 % of control | [11] 89 % of control | [14] 91 % of control | [15] 91 % of control | [16] 87 % of control

NC(=O)CNc1ccccc1C(=O)O
inactive: dose: 100.0 mg/kg/injection, schedule: Q01DX001 (ip), vehicle: Klucel (hydroxypropylcellulose) (HPC) 93 % of control | dose: 200.0 mg/kg/injection, schedule: Q01DX001 (ip), vehicle: Klucel (hydroxypropylcellulose) (HPC) 96 % of control | dose: 400.0 mg/kg/injection, schedule: Q01DX001 (ip), vehicle: Klucel (hydroxypropylcellulose) (HPC) 93 % of control

CC(CN(C)C)C(O)(c1ccccc1)c1ccccc1 (centres undefined)
inactive: dose: 50.0 mg/kg/injection, schedule: Q01DX001 (ip), vehicle: saline 98 % of control | dose: 100.0 mg/kg/injection, schedule: Q01DX001 (ip), vehicle: saline 98 % of control | dose: 200.0 mg/kg/injection, schedule: Q01DX001 (ip), vehicle: saline 104 % of control

CC(=O)OCC1OC(n2c(Br)nc3c(N)ncnc32)C2OC(C)(C)OC12 (centres undefined)
inactive: dose: 25.0 mg/kg/injection, schedule: Q01DX001 (ip), vehicle: carboxymethylcellulose (CMC) 95 % of control | dose: 50.0 mg/kg/injection, schedule: Q01DX001 (ip), vehicle: carboxymethylcellulose (CMC) 100 % of control | [6] 93 % of control

O=C(O)c1n[nH]nc1[N+](=O)[O-]
inactive: dose: 75.0 mg/kg/injection, schedule: Q01DX001 (ip), vehicle: saline 96 % of control | dose: 150.0 mg/kg/injection, schedule: Q01DX001 (ip), vehicle: saline 105 % of control | dose: 300.0 mg/kg/injection, schedule: Q01DX001 (ip), vehicle: saline 98 % of control

O=C(O)c1ccc(NC(=O)c2ccc(F)cc2)cc1
inactive: [15] 94 % of control | [16] 96 % of control | dose: 400.0 mg/kg/injection, schedule: Q01DX009 (ip), vehicle: saline with Tween-80 105 % of control

C/C(=N/O)c1ccc[nH]1
inactive: [7] 103 % of control | [8] 103 % of control | [9] 103 % of control

CC(C)CN(CC(C)C)c1nn[nH]n1
inactive: [5] 92 % of control | [12] 98 % of control | [13] 98 % of control
